Laboratory results reported in patent US10294202B2, “Pyrrolidinones as herbicides” (FMC Corporation, priority 2013, dated 2019).

Assays:
ryegrass, Italian = assay: Test C pre-/postemergence herbicide test; format: in vivo, Lolium multiflorum; settings: Preemergence
How it was run: (§1)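 Two application timings ran in parallel with identically formulated test chemicals (non-phytotoxic solvent, surfactant included): spray on seeded loam–sand soil, and spray on emerged plants 2 to 18 cm high. Evaluation at 13 to 15 days compared each species with controls, rated from 0 up to 100.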

barnyardgrass = assay: Test A pre-/postemergence herbicide test; format: in vivo, Echinochloa crus-galli; settings: for Plant response rating, Barnyardgrass: 0 to 100 scale
How it was run: (§2)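 Directed soil spray to seeded pots (preemergence) or spray onto one- to two-leaf seedlings 2–10 cm tall (postemergence); loam/sand substrate throughout. Evaluated visually after about 10 days against untreated plants, 0 = no effect, 100 = complete control.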

corn [1] = assay: Test A pre-/postemergence herbicide test; format: in vivo, Zea mays; settings: Postemergence
How it was run: as §2

corn [2] = assay: Test C pre-/postemergence herbicide test; format: in vivo, Zea mays; settings: Preemergence
How it was run: as §1

galium = assay: Test C pre-/postemergence herbicide test; format: in vivo, Galium aparine; settings: Preemergence
How it was run: as §1

wheat (winter wheat) = assay: Test C pre-/postemergence herbicide test; format: in vivo, Triticum aestivum; settings: Preemergence
How it was run: as §1

crabgrass, large = assay: Test C pre-/postemergence herbicide test; format: in vivo, Digitaria sanguinalis; settings: Preemergence
How it was run: as §1

pigweed = assay: Test A pre-/postemergence herbicide test; format: in vivo, Amaranthus retroflexus; settings: for Plant response rating, Pigweed: 0 to 100 scale
How it was run: as §2

wheat = assay: Test A pre-/postemergence herbicide test; format: in vivo, Triticum aestivum; settings: Postemergence
How it was run: as §2

soybean = assay: Test C pre-/postemergence herbicide test; format: in vivo, Glycine max; settings: Preemergence
How it was run: as §1

morningglory = assay: Test C pre-/postemergence herbicide test; format: in vivo, Ipomoea coccinea; settings: Preemergence
How it was run: as §1

johnsongrass = assay: Test C pre-/postemergence herbicide test; format: in vivo, Sorghum halepense; settings: Preemergence
How it was run: as §1

foxtail, giant = assay: Test C pre-/postemergence herbicide test; format: in vivo, Setaria faberii; settings: Preemergence
How it was run: as §1

[3] = 31 g ai/ha, scale 0 to 100, 0 is no effect and 100 is complete control
[4] = 62 g ai/ha, scale 0 to 100 (0 no effect, 100 complete control)
[5] = 125 g ai/ha, scale 0 to 100 (0 no effect, 100 complete control)
[6] = 125 g ai/ha, visual rating, 0 no effect, 100 complete control, approximately 10 days, preemergence
[7] = Postemergence, 125 g ai/ha, 0 is no effect, 100 is complete control
[8] = preemergence, 500 g ai/ha, 0 is no effect and 100 is complete control
[9] = 125 g ai/ha, 0 to 100 scale, 0 is no effect, 100 is complete control

## O=C1NCC(c2cccc(C(F)F)c2)C1C(=O)Nc1cccc(F)c1F (racemic) [Compound 211]
ryegrass, Italian; [3]
  Ryegrass, Italian plant response rating: 0
ryegrass, Italian; [4]
  Ryegrass, Italian plant response rating: 35
ryegrass, Italian; [5]
  Plant response rating, Ryegrass, Italian: 40
ryegrass, Italian; 250 g ai/ha
  Plant response rating (scale of 0 to 100), Ryegrass, Italian: 50
barnyardgrass; [6]
  Plant response rating, Barnyardgrass: 80
barnyardgrass; [7]
  Plant response rating, Barnyardgrass: 90
barnyardgrass; Postemergence, 500 g ai/ha
  Barnyardgrass plant response rating (0 to 100 scale, 0 is no effect, 100 is complete control): 90
barnyardgrass; [8]
  Plant response rating, Barnyardgrass: 90
Corn [1]; [9]
  Plant response rating, Corn: 30
Corn [1]; 500 g ai/ha
  Corn plant response rating (0 to 100 scale, 0 is no effect, 100 is complete control): 70
Corn [2]; [3]
  Corn plant response rating: 0
Corn [2]; [4]
  Corn plant response rating: 25
Corn [2]; [5]
  Plant response rating, Corn: 0
Corn [2]; 250 g ai/ha
  Plant response rating (scale of 0 to 100), Corn: 80
galium; [4]
  Galium plant response rating: 5
galium; [5]
  Plant response rating, Galium: 85
galium; 250 g ai/ha
  Plant response rating (scale of 0 to 100), Galium: 100
Wheat (winter wheat); [3]
  Wheat plant response rating: 0
Wheat (winter wheat); [4]
  Wheat plant response rating: 0
Wheat (winter wheat); [5]
  Plant response rating, Wheat: 30
Wheat (winter wheat); 250 g ai/ha
  Plant response rating (scale of 0 to 100), Wheat: 45
crabgrass, large; [3]
  Crabgrass, Large plant response rating: 100
crabgrass, large; [4]
  Crabgrass, Large plant response rating: 95
crabgrass, large; [5]
  Plant response rating, Crabgrass, Large: 95
crabgrass, large; 250 g ai/ha
  Plant response rating (scale of 0 to 100), Crabgrass, Large: 95
pigweed; [6]
  Plant response rating, Pigweed: 20
pigweed; [7]
  Plant response rating, Pigweed: 0
pigweed; Postemergence, 500 g ai/ha
  Pigweed plant response rating (0 to 100 scale, 0 is no effect, 100 is complete control): 50
pigweed; [8]
  Plant response rating, Pigweed: 70
wheat; [9]
  Plant response rating, Wheat: 30
wheat; 500 g ai/ha
  Wheat plant response rating (0 to 100 scale, 0 is no effect, 100 is complete control): 80
soybean; [3]
  Soybean plant response rating: 0
soybean; [4]
  Soybean plant response rating: 0
soybean; [5]
  Plant response rating, Soybean: 5
soybean; 250 g ai/ha
  Plant response rating (scale of 0 to 100), Soybean: 0
morningglory; [3]
  Morningglory plant response rating: 0
morningglory; [4]
  Morningglory plant response rating: 0
morningglory; [5]
  Plant response rating, Morningglory: 0
morningglory; 250 g ai/ha
  Plant response rating (scale of 0 to 100), Morningglory: 0
johnsongrass; [3]
  Johnsongrass plant response rating: 0
johnsongrass; [4]
  Johnsongrass plant response rating: 0
johnsongrass; [5]
  Plant response rating, Johnsongrass: 30
johnsongrass; 250 g ai/ha
  Plant response rating (scale of 0 to 100), Johnsongrass: 65
foxtail, giant; [3]
  Foxtail, Giant plant response rating: 0
foxtail, giant; [4]
  Foxtail, Giant plant response rating: 70
foxtail, giant; [5]
  Plant response rating, Foxtail, Giant: 90
foxtail, giant; 250 g ai/ha
  Plant response rating (scale of 0 to 100), Foxtail, Giant: 95
